Assay results reported in PubChem BioAssay (NCI).
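Method: 48-hour compound exposure of cells in 96-well plates, five concentrations, linear interpolation of endpoints. GI50 is the concentration that inhibits growth by half. TGI: concentration producing complete growth inhibition.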

Legend:
Assay in all cases: NCI anticancer screen, dose series, 48 h
HS 578T breast = test system: HS 578T breast
U251 CNS = test system: U251 CNS
UO-31 renal = test system: UO-31 renal
SF-295 CNS = test system: SF-295 CNS
RXF 393 renal = test system: RXF 393 renal
SK-MEL-5 melanoma = test system: SK-MEL-5 melanoma
IGROV1 ovarian = test system: IGROV1 ovarian
EKVX NSCLC = test system: EKVX NSCLC
SR leukemia = test system: SR leukemia
KM12 colon = test system: KM12 colon

Row | Compound | TGI (HS 578T breast) [µM] | TGI (U251 CNS) [µM] | GI50 (UO-31 renal) [µM] | TGI (UO-31 renal) [µM] | GI50 (SF-295 CNS) [µM] | TGI (SF-295 CNS) [µM] | TGI (RXF 393 renal) [µM] | GI50 (SK-MEL-5 melanoma) [µM] | TGI (SK-MEL-5 melanoma) [µM] | TGI (IGROV1 ovarian) [µM] | TGI (EKVX NSCLC) [µM] | GI50 (SR leukemia) [µM] | TGI (SR leukemia) [µM] | TGI (KM12 colon) [µM]
1 | COc1cc(OC)c2[nH]c3c(O)c(-c4c(C)cc5c([nH]c6c(OC)cc(OC)cc65)c4O)c(C)cc3c2c1 | 20.2 | 50 | 6.83 | 13.3 | 10.2 | 21.8 | 16.8 | 8.38 | 15.2 | 13.7 | 12.7 | 9.01 | 20 | 23.8
2 | ClCCCCCc1c2nc(c(CCCCCCl)c3ccc([nH]3)c(CCCCCCl)c3ccc([nH]3)c(CCCCCCl)c3nc1C=C3)C=C2 | > 100 | > 100 | – | > 100 | – | > 100 | > 100 | – | > 100 | > 100 | > 100 | – | > 100 | > 100
3 | O=C(c1cc2c(c3ccccc13)NC1(CCCCC1)N=C2C(F)(F)F)C(F)(F)F | 29.3 | 13.9 | – | 11.8 | – | 10.9 | 12.7 | – | 18.2 | 17.3 | 15.7 | – | 13.2 | 14.2
4 | CCN1CN(c2ccccc2)C2(CCN(CC(CC3OCCO3)c3ccc(F)cc3)CC2)C1=O (stereo not given) | > 64.1 | 38.9 | – | > 74.8 | – | 18.9 | 44.8 | – | 15.2 | > 53.8 | > 100 | – | > 100 | 17.5
5 | COC(=O)CCC(NC(=O)OC(C)(C)C)C(=O)NC(Cc1ccc(NC(=O)CCCC(C)=O)cc1)C(=O)NC(CCC(=O)OC)C(=O)OC (stereo not given) | > 100 | – | – | > 100 | – | > 100 | > 100 | – | > 100 | > 100 | > 100 | – | > 100 | > 100
6 | O=C(Nc1ccc(Cl)cc1)c1cc(S(=O)(=O)Nc2nnc3c(Cl)cc(C(F)(F)F)cn23)c(S)cc1Cl | > 100 | > 100 | – | > 100 | – | > 100 | > 100 | – | > 100 | > 100 | > 100 | – | > 100 | > 100
7 | O=C(c1ccccc1)N1C(=S)N(c2ccccn2)C(=Nc2ccccc2)C1=Nc1ccccc1 | > 61.8 | 39.6 | – | 27.1 | – | > 73.8 | 25.9 | – | > 50 | > 64.1 | > 100 | – | > 63 | 19
8 | CC1C(C#N)(C#N)C(C#N)=C(N)C1(Cl)[N+](=O)[O-] (stereo not given) | 46.1 | 34.4 | – | 29.4 | – | 36.1 | 17.4 | – | 25.4 | 22.5 | 41.4 | – | 26.5 | 34.4
9 | CCOC(=O)c1c(NC(=S)Nc2ccccc2)sc2c1CCOC2 | > 100 | > 100 | – | > 100 | – | > 100 | > 100 | – | > 100 | > 100 | > 100 | – | > 100 | > 100
10 | COc1ccc(/C=C2\C[C@H]3[C@@H]4CCC5=CC(=O)CC[C@]5(C)[C@H]4CC[C@]3(C)C2=O)cc1OC | > 100 | – | – | 6.85 | – | > 100 | > 100 | – | 5.45 | > 100 | 61.2 | – | 7.4 | > 100
11 | CN(C)c1ccc(C=C2C(=O)NC(=S)NC2=O)c2ccccc12 | 71.8 | > 100 | – | > 100 | – | > 100 | 76.4 | – | > 100 | > 100 | > 100 | – | > 100 | > 100
12 | CN1CC2CN(Cc3ccccc3)CCN2c2cccnc21 (stereo not given) | > 100 | > 100 | – | > 100 | – | > 100 | > 100 | – | > 100 | > 100 | > 100 | – | > 100 | 89.1
13 | COc1cccc(C2c3cc4c(cc3OC(Nc3ccccc3)C2C)OCO4)c1OC (stereo not given) | 61.4 | > 100 | – | > 100 | – | > 100 | > 100 | – | > 100 | > 100 | > 100 | – | 11.2 | > 100
14 | CCOC(=O)NN(C(=O)OCC)c1c(C)cc(C)cc1C | > 100 | > 100 | – | > 100 | – | – | > 100 | – | > 100 | > 100 | > 100 | – | > 100 | > 100
15 | N#Cc1c(O)c(/C=N/c2ncccn2)c(=O)n2c1[nH]c1ccccc12 | > 100 | > 100 | – | > 100 | – | > 100 | > 100 | – | > 100 | > 100 | > 100 | – | > 100 | > 100
16 | OC1CSc2nc3ccccc3n2C1 (stereo not given) | 77.7 | > 100 | – | > 100 | – | > 100 | > 100 | – | > 100 | > 100 | > 100 | – | > 100 | > 100
17 | CNC1(C(=O)O)CC1 | > 100 | > 100 | – | – | – | > 100 | > 100 | – | > 100 | > 100 | > 100 | – | > 100 | > 100
